Assay results as given in patent US20230263757A1, “DISINFECTING WIPE KIT FOR CENTRAL VENOUS ACCESS DEVICES” (SterileCare Inc., priority 2022, published 2023).
Counter-ions that a name gives are not always drawn.

How the values were obtained:
Assay type in all cases: cell-based
Proteus mirabilis ON153 [1] = assay: MBEC assay, 48-h biofilm, 24 h exposure
Description: (§1) A biofilm cultivation cell composition was provided. This fifth composition was created using an MBEC Assay® biofilm inoculator, consisting of a polystyrene lid with 96 downward-protruding pegs and a corresponding base used to grow biofilms. A standardized inoculum was diluted in an appropriate biofilm growth medium to achieve a viable cell count of 1.5×10^6 CFU/mL of bacterial cells or 5×10^5 CFU/mL of fungal cells. Then, 150 μL of this inoculum was transferred into each appropriate well, and the peg lids were inserted into the microtiter plates. The plates were sealed with Parafilm and were incubated at optimum temperature for 48 h with slight rocking for bacteria and shaking at 200 rpm for fungal strains. After incubation, the peg lid was removed from the base and rinsed twice with sterile phosphate-buffered saline (PBS) for 2 min to remove loosely attached non-sessile cells. Before the antimicrobial challenge, the pegs in column 1 (n=8) were considered the biofilm growth control; these pegs were removed from the lids, placed into 200 μL of recovery medium, and analyzed for starting biofilm cell numbers as described below. The rinsed pegs were placed into new 96-well plates containing two-fold dilutions of antimicrobials such as tetrasodium EDTA (4%-0.0125%), ethanol (100%-0.2%), and chlorhexidine HCl (100 μg/mL-0.4 μg/mL) in 200 μL of suitable biofilm growth medium per well and incubated at optimum temperature for 24 h. After the antimicrobial challenge, the pegs were rinsed twice with sterile PBS for 2 min and placed into a new 96-well plate containing 200 μL of recovery medium. The recovery plates were sealed with Parafilm, and biofilm cells were dislodged from the pegs by sonication for 30 min with a Branson 3510 bath sonicator. The biofilm cells in the recovery medium were serially diluted, and a drop dilution assay was performed to enumerate the viable cells. MBEC values were determined as the minimum concentration of antimicrobials that yielded a viable cell count at or lower than the 125 CFU/mL detection limit.

[2] = tested on: Staphylococcus aureus ON89; assay: MBEC assay, 48-h biofilm, 24 h exposure
Description: as §1

[3] = tested on: Staphylococcus epidermidis SK9; assay: MBEC assay, 48-h biofilm, 24 h exposure
Description: as §1

Escherichia coli SK2 = assay: MBEC assay, 48-h biofilm, 24 h exposure
Description: as §1

Candida albicans SK4b [4] = assay: MBEC assay, 48-h biofilm, 24 h exposure
Description: as §1

[5] = tested on: Pseudomonas aeruginosa SK1; assay: MBEC assay, 48-h biofilm, 24 h exposure
Description: as §1

Proteus mirabilis ON153 [6] = assay: Checkerboard, FMCI; details: for microbicidal concentration in combination: EDTA + ethanol
Description: (§2) An assay was made using a minimum inhibitory concentration (MIC) and minimum bactericidal concentration (MBC) and minimum fungicidal concentration (MFC) determination. The MIC was determined by the micro broth dilution method in 96-well plates. Serial two-fold dilutions of tetrasodium EDTA (from 2% to 0.015%), ethanol (from 50% to 0.1%) and chlorhexidine HCl (from 100 μg/mL to 0.025 μg/mL) were prepared in MH broth with a final volume of 90 μL per well. A 10 μL containing 1×10^5 bacterial cells or 2×10^3 fungal cells were added to each well. The inoculated plates were covered with a lid, sealed with Parafilm, and incubated for 24 h at 37° C. with slight rocking on a tilting platform shaker. After incubation, the optical density at 600 nm (OD 600) of the cultures in each well was measured using an xMark™ Microplate Absorbance Spectrophotometer (Bio-Rad). […] MBCs and MFCs were determined by transferring 100 μL from each well with no apparent growth onto appropriate agar plates, followed by incubation for 24 h at 37° C.
(§3) A fourth composition and solution included tetrasodium EDTA with ethanol or chlorhexidine HCl. This fourth composition and solution were created using checkerboard titration methods using micro broth dilution in 96-well microtiter plates. The concentrations of antimicrobials used were based on previously determined MIC values. Briefly, 200 μL, of two-fold dilutions of tetrasodium EDTA and ethanol or chlorhexidine HCl were prepared in MH or MH II broth with standardized cell suspension. […] Microtiter plates were incubated at 37° C. for 24 h, and the results were analyzed. Each test was performed in duplicate and included a growth control without adding any antimicrobials.

Escherichia coli ON29 [7] = assay: Checkerboard, FMCI; details: for microbicidal concentration in combination: EDTA + ethanol
Description: as §2, §3

[8] = tested on: 48-h-old biofilms of bacterial and fungal strains; assay: MBEC assay, 24-h exposure; details: 24 h of treatment
Description: as §1, with “The rinsed pegs were placed into new 96-well plates containing two-fold dilutions of antimicrobials such as tetrasodium EDTA (4%-0.0125%), ethanol (100%-0.2%), and chlorhexidine HCl (100 μg/mL-0.4 μg/mL) in 200 μL of suitable biofilm growth medium per well and incubated at optimum temperature for 24 h.” left out

Proteus mirabilis ON153 [9] = assay: MBC/MFC determination; details: alone
Description: as §2

Escherichia coli ON29 [10] = assay: MBC/MFC determination; details: alone
Description: as §2

[11] = tested on: Staphylococcus aureus ON89; assay: MBC/MFC determination; details: alone
Description: as §2

Candida albicans SK4b [12] = assay: MBC/MFC determination; details: alone
Description: as §2

[13] = tested on: Stenotrophomonas maltophilia ON17; assay: MBC/MFC determination; details: alone
Description: as §2

[14] = tested on: Pseudomonas aeruginosa SK1; assay: MBC/MFC determination; details: alone
Description: as §2

Serratia marcescens SK2 = assay: MBC/MFC determination; details: alone
Description: as §2

[15] = tested on: Staphylococcus epidermidis ON170; assay: MBC/MFC determination; details: alone
Description: as §2

Q: Which results are given for [H]/N=C(\N/C(=N/[H])NCCCCCCNC(=N)NC(=N)Nc1ccc(Cl)cc1)Nc1ccc(Cl)cc1 [Chlorhexidine HCl, 1,6-bis(4′-chlorophenylbiguanide) hexane]?
A: MBEC (Proteus mirabilis ON153 [1]): 100 µg/mL; MBEC [2]: 100 µg/mL; MBEC [3]: 25 µg/mL; MBEC (Escherichia coli SK2): 50 µg/mL; MBEC (Candida albicans SK4b [4]): 50 µg/mL; MBEC [5]: 100 µg/mL; Chlorhexidine HCl microbicidal concentration in combination (Proteus mirabilis ON153 [6]; EDTA + chlorhexidine HCl): 1.6 µg/mL; Chlorhexidine HCl microbicidal concentration in combination (Escherichia coli ON29 [7]; EDTA + chlorhexidine HCl): 0.2 µg/mL; concentration alone able to eradicate all established biofilms [8]: 100 µg/mL; MBC/MFC (Proteus mirabilis ON153 [9]): 50 µg/mL; MBC/MFC (Escherichia coli ON29 [10]): 0.8 µg/mL; MBC/MFC [11]: 0.8 µg/mL; MBC/MFC (Candida albicans SK4b [12]): 3.125 µg/mL; MBC/MFC [13]: 3.125 µg/mL; MBC/MFC [14]: 3.125 µg/mL; MBC/MFC (Serratia marcescens SK2): 25 µg/mL; MBC/MFC [15]: 0.8 µg/mL

Q: Which results are given for O=C([O-])CN(CCN(CC(=O)[O-])CC(=O)[O-])CC(=O)[O-].[Na+].[Na+].[Na+].[Na+] [EDTA, tetrasodium EDTA]?
A: MBEC (Proteus mirabilis ON153 [1]): 4 % w/v; MBEC [2]: 4 % w/v; MBEC [3]: 2 % w/v; MBEC (Escherichia coli SK2): 2 % w/v; MBEC (Candida albicans SK4b [4]): 1 % w/v; MBEC [5]: 4 % w/v; EDTA microbicidal concentration in combination (Proteus mirabilis ON153 [6]; EDTA + chlorhexidine HCl): 0.125 % w/v; microbicidal concentration in combination (Proteus mirabilis ON153 [6]): 0.063 % w/v; EDTA microbicidal concentration in combination (Escherichia coli ON29 [7]; EDTA + chlorhexidine HCl): 0.008 % w/v; microbicidal concentration in combination (Escherichia coli ON29 [7]): 0.25 % w/v; concentration alone able to eradicate all established biofilms [8]: 4%; MBC/MFC (Proteus mirabilis ON153 [9]): 2 % w/v; MBC/MFC (Escherichia coli ON29 [10]): 1 % w/v; MBC/MFC [11]: 1 % w/v; MBC/MFC (Candida albicans SK4b [12]): 1 % w/v; MBC/MFC [13]: 1 % w/v; MBC/MFC [14]: 1 % w/v; MBC/MFC (Serratia marcescens SK2): 2 % w/v; MBC/MFC [15]: 0.5 % w/v

Q: For CCO [Ethanol, ethanol], which MBEC (Proteus mirabilis ON153 [1]) is on record?
A: 50 % w/v

Q: What about the MBEC [2] of the same compound?
A: 12.5 % w/v

Q: What about the MBEC [3] of the same compound?
A: 12.5 % w/v

Q: What about the MBEC (Escherichia coli SK2) of the same compound?
A: 12.5 % w/v

Q: What about the MBEC (Candida albicans SK4b [4]) of the same compound?
A: 12.5 % w/v

Q: What about the MBEC [5] of the same compound?
A: 12.5 % w/v

Q: What about the “microbicidal concentration in combination” value (Proteus mirabilis ON153 [6]) of the same compound?
A: 6.25 % w/v

Q: What about the “microbicidal concentration in combination” value (Escherichia coli ON29 [7]) of the same compound?
A: 6.25 % w/v

Q: And the “concentration alone able to eradicate all established biofilms” value [8]?
A: 5%

Q: What about the MBC/MFC (Proteus mirabilis ON153 [9]) of the same compound?
A: 12.5 % w/v

Q: What about the MBC/MFC (Escherichia coli ON29 [10]) of the same compound?
A: 25 % w/v

Q: What about the MBC/MFC [11] of the same compound?
A: 25 % w/v

Q: And the MBC/MFC (Candida albicans SK4b [12])?
A: 6.25 % w/v

Q: What about the MBC/MFC [13] of the same compound?
A: 6.25 % w/v

Q: And the MBC/MFC [14]?
A: 12.5 % w/v

Q: And the MBC/MFC (Serratia marcescens SK2)?
A: 12.5 % w/v

Q: And the MBC/MFC [15]?
A: 6.25 % w/v
